Data from PubChem BioAssay AID1963862 (Molecular Pharmacology Branch, DTP, NCI, 2024).
pIC50: −log10 of the molar value. Values joined by “and” are separate entries in the source; they are usually repeats but may differ in a detail not shown here. Equal entries are not always repeated. Active and inactive are the calls of the source. The calls were made as follows: active = viability on the fitted dose curve at most 10% of control; inactive = the rest.

Tested on: KRAS patient-derived spheroids with HUVEC/MSC, viability
Experiment: Anticancer human tumor 941728-121-R-J1-PDC patient-derived lung adenocarcinoma cell line growth inhibition [KRAS2]
Details: for viability, T/C: stronger effect = lower value
Description: Multicellular complex tumor spheroid response to RAS pathway inhibitors in combination with a targeted agents in patient-derived cell lines with oncogenic KRAS variants from multiple cancer types
A high-throughput screen of multi-cell type tumor spheroids was designed to identify active combinations of targeted small molecules and KRAS pathway inhibitors. Complex spheroids include a stromal component modeled by human endothelial cells (HUVEC) and fibroblasts modeled by human mesenchymal stem cells (MSCs). The concentration ranges selected for each drug and investigational agent were based upon clinically achievable concentrations if the clinical Cmax of the agent was known.
Compounds. The drugs and investigational agents: BI-3406 (NSC825286), BAY-293 (NSC824723), batoprotafib (TNO155; NSC825523), sotorasib (AMG 510; NSC818433), MRTX1257 (NSC819558), elimusertib (BAY 1895344; NSC800525), molibresib (GSK525762; NSC774829), temuterkib (LY3214996; NSC803410), venetoclax (NSC766270), alisertib (NSC759677), olaparib (NSC753686), talazoparib (NSC767125), erdafitinib (NSC781556), ipatasertib (NSC767898), cabozantinib (NSC761068), nintedanib (NSC756659), abemaciclib (NSC768073), docetaxel (NSC628503), trametinib (NSC758246), and sapanisertib (NSC764658) were obtained from the National Cancer Institute (NCI) Developmental Therapeutics Program Chemical Repository. The FDA-approved anticancer drug set is available from the Developmental Therapeutics Program. […] The stock solutions were prepared in dimethyl sulfoxide (DMSO, Sigma-Aldrich, St. Louis, MO, cat. D2650) at 800-fold the tested concentration and stored at -70 degrees C prior to their use. All drugs and investigational agents were tested over a range starting from a high concentration at or near the clinical Cmax and decreasing in half-log increments. If the clinical Cmax for an agent had not been determined, the highest concentration tested was 10 microM.
Cell Culture. All cells were maintained in an incubator at 37 degrees C and 5% CO2 with 95% humidity. The PDC lines were cultured according to standard operating procedures established by the NCI PDMR (https://pdmr.cancer.gov/sops/default.htm). Briefly, all PDCs were thawed and cultured in Matrigel-coated flasks prepared with a working solution of 1X Ham's F-12 nutrient mix, without supplementation (Invitrogen, Waltham, MA, cat. 11765054), 100 U/mL penicillin-streptomycin (Invitrogen, cat. 15140122), and 2.5% Matrigel (Corning Inc., Corning, NY, cat. 354248) for the first three passages. All PDCs were cultured in complete DMEM/F-12 media containing advanced DMEM/F-12 (Invitrogen, cat. 12634028), 4.9% defined fetal bovine serum, heat inactivated (HyClone Laboratories Inc., Logan, UT, cat. SH30070.03HI), 389 ng/mL hydrocortisone (Sigma-Aldrich, cat. H4001), 9.7 ng/mL human EGF recombinant protein (Invitrogen, cat. PHG0313), 23.4 microg/mL adenine (Sigma-Aldrich, cat. A2786), 97.3 U/mL penicillin-streptomycin (Invitrogen, cat. 15140122), 1.9 mM L-glutamine (Invitrogen, cat. 25030081), and 9.7 microM Y-27632 dihydrochloride (Tocris Bioscience, Bristol, United Kingdom, cat. 1254). The PDCs were cultured in complete DMEM/F12 media without 9.7 microM Y-27632 dihydrochloride for at least two passages prior to the screen. The established cell line HOP-62 was cultured in RPMI 1640 medium, HEPES (Invitrogen, cat. 22400105) with 10% defined fetal bovine serum (HyClone Laboratories Inc., cat. SH30070.03) and 2 mM L-glutamine (Invitrogen, cat. 25030081). The pooled donor HUVEC were cultured in endothelial cell growth medium 2 (PromoCell, Heidelberg, Germany, cat. C-22011) and the hMSC were cultured in mesenchymal stem cell growth medium 2 (PromoCell, cat. C-28009). For all experiments, HUVEC and hMSC were used at passages </=5, while the malignant cell lines were used at passages </=15. […]

[1] = compound alone, run of 07/12/2021
[2] = compound alone, run of 07/19/2021
[3] = compound alone, run of 07/26/2021
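For pIC50 in this document: spheroids exposed to agents for seven days before readout.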
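For viability, T/C in this document: spheroids exposed to agents for seven days before readout.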

| Compound | viability, T/C (compound 0.1 µM) | viability, T/C (compound 0.316 µM) | viability, T/C (compound 1 µM) | viability, T/C (compound 3.16 µM) | viability, T/C (compound 10 µM) | viability, T/C (compound 0.0316 µM) | IC50 (curve of compound) | pIC50 (curve of compound) | also measured |
| --- | --- | --- | --- | --- | --- | --- | --- | --- | --- |
| C=CC(=O)N1CCN(c2nc(=O)n(-c3c(C)ccnc3C(C)C)c3nc(-c4c(O)cccc4F)c(F)cc23)C(C)C1 (stereo not drawn) | 23.2% [middle of 17 runs] | 22.9% [middle of 17 runs] | 22.8% [middle of 17 runs] | 27.4% [middle of 17 runs] | 32.9% [middle of 17 runs] |  |  |  | pIC50 [1]: > 7.00; pIC50 [2]: > 7.00; pIC50 [3]: > 7.00 |
| C=CC(=O)N1CCN(c2nc(OCC3CCCN3C)nc3c2CCN(c2cccc4cccc(C)c24)C3)CC1CC#N (stereo not drawn) | 30.3% [middle of 16 runs] |  | 27.2% [middle of 17 runs] |  |  |  |  |  | pIC50 [1]: > 7.50; pIC50 [2]: > 7.50; pIC50 [3]: > 7.50 |
| CC(=O)Nc1cccc(-n2c(=O)n(C3CC3)c(=O)c3c(Nc4ccc(I)cc4F)n(C)c(=O)c(C)c32)c1 |  |  |  |  |  | 42.3% [middle of 5 runs] |  |  | viability, T/C (compound 0.0001 µM): 84.8% [middle of 5 runs]; viability, T/C (compound 0.000316 µM): 63.7% [middle of 5 runs]; viability, T/C (compound 0.001 µM): 53.3% [middle of 5 runs]; viability, T/C (compound 0.00316 µM): 49.9% [middle of 4 runs]; viability, T/C (compound 0.01 µM): 47.2% [middle of 5 runs] |
| CC(=O)OC12COC1CC(O)C1(C)C(=O)C(O)C3=C(C)C(OC(=O)C(O)C(NC(=O)OC(C)(C)C)c4ccccc4)CC(O)(C(OC(=O)c4ccccc4)C21)C3(C)C (stereo not drawn) | 46.2% [middle of 5 runs] | 46.5% [middle of 5 runs] | 53.8% [middle of 5 runs] | 55.1% [middle of 5 runs] |  | 46.3% [middle of 5 runs] |  |  | viability, T/C (compound 0.01 µM): 53% [middle of 5 runs] |
| CC(C)NCC(C(=O)N1CCN(c2ncnc3c2C(C)CC3O)CC1)c1ccc(Cl)cc1 (stereo not drawn) | 90.6% [middle of 5 runs] | 56.5% [middle of 5 runs] | 43.8% [middle of 5 runs] |  | 31.9% [middle of 5 runs] | 92.1% [middle of 5 runs] | 592 nM [middle of 5 runs] |  |  |
| CC(C)n1nc(-c2ccc3oc(N)nc3c2)c2c(N)ncnc21 |  |  |  |  |  |  |  |  | viability, T/C (compound 0.000316 µM): 90% [middle of 5 runs] |
| CC1(C)CCC(CN2CCN(c3ccc(C(=O)NS(=O)(=O)c4ccc(NCC5CCOCC5)c([N+](=O)[O-])c4)c(Oc4cnc5[nH]ccc5c4)c3)CC2)=C(c2ccc(Cl)cc2)C1 |  |  | 51.1% [middle of 5 runs] | 11.1% [middle of 5 runs] | 5.66% [middle of 5 runs] |  | 918 nM [middle of 5 runs] |  |  |
| CC1COCCN1c1cc(-c2ccnn2C)c2ccnc(-c3ccn[nH]3)c2n1 (stereo not drawn) | 44% [middle of 5 runs] | 42% [middle of 5 runs] | 35.4% [middle of 5 runs] | 33.2% [middle of 5 runs] |  |  |  |  |  |
| CC1OCC2(CCN(c3cnc(Sc4ccnc(N)c4Cl)c(N)n3)CC2)C1N (stereo not drawn) | 48.3% [middle of 19 runs] | 38% [middle of 19 runs] |  | 29.8% [middle of 20 runs] |  | 71% and 57.9% and 63.9% | 141 nM [middle of 5 runs] |  | pIC50 [2]: > 7.00 |
| CCN1CCN(Cc2ccc(Nc3ncc(F)c(-c4cc(F)c5nc(C)n(C(C)C)c5c4)n3)nc2)CC1 | 59.9% [middle of 5 runs] | 60.4% [middle of 5 runs] | 74.5% [middle of 5 runs] |  |  | 60.2% [middle of 5 runs] |  | < 6.00 | viability, T/C (compound 0.00316 µM): 86.1% [middle of 5 runs]; viability, T/C (compound 0.01 µM): 71.3% [middle of 5 runs] |
| CCNC(=O)CC1N=C(c2ccc(Cl)cc2)c2cc(OC)ccc2-n2c(C)nnc21 (stereo not drawn) |  | 61.8% [middle of 5 runs] |  |  |  | 94% [middle of 5 runs] |  |  |  |
| CN(C)C/C=C/C(=O)Nc1cc2c(Nc3ccc(F)c(Cl)c3)ncnc2cc1O[C@H]1CCOC1 | 62.2% [middle of 5 runs] |  |  |  |  | 57.2% [middle of 5 runs] |  | < 7.00 | viability, T/C (compound 0.000316 µM): 89.4% [middle of 5 runs]; viability, T/C (compound 0.001 µM): 78.7% [middle of 5 runs]; viability, T/C (compound 0.00316 µM): 63.7% [middle of 5 runs]; viability, T/C (compound 0.01 µM): 61.1% [middle of 5 runs] |
| CNCc1ccccc1-c1csc(C(C)Nc2nc(C)nc3cc(OC)c(OC)cc23)c1 (stereo not drawn) |  |  |  |  | 0.17% [middle of 15 runs] |  |  |  | IC50 [2]: 112 nM [middle of 5 runs] |
| COC(=O)c1ccc2c(C(=Nc3ccc(N(C)C(=O)CN4CCN(C)CC4)cc3)c3ccccc3)c(O)[nH]c2c1 | 77.9% [middle of 5 runs] |  | 68.6% [middle of 5 runs] | 69% [middle of 5 runs] | 64% [middle of 5 runs] |  |  | < 5.00 |  |
| COc1cc(Nc2ncc3c(n2)-c2ccc(Cl)cc2C(c2c(F)cccc2OC)=NC3)ccc1C(=O)O |  |  | 63.3% [middle of 5 runs] | 55% [middle of 5 runs] | 50.9% [middle of 5 runs] |  |  |  |  |
| COc1cc(OC)cc(N(CCNC(C)C)c2ccc3ncc(-c4cnn(C)c4)nc3c2)c1 | 104% [middle of 5 runs] | 92% [middle of 5 runs] |  |  |  |  |  |  |  |
| COc1cc2nc(C)nc(NC(C)c3cc(N)cc(C(F)(F)F)c3)c2cc1OC1CCOC1 (stereo not drawn) |  |  |  |  |  |  |  |  | pIC50 [2]: > 7.00 and 6.42 and 6.65 |
| COc1cc2nccc(Oc3ccc(NC(=O)C4(C(=O)Nc5ccc(F)cc5)CC4)cc3)c2cc1OC |  | 83.8% [middle of 5 runs] |  |  |  | 97.7% [middle of 5 runs] |  | < 5.00 and 5.56 | outcome (compound 10 µM): inactive |
| Cn1nccc1Nc1nccc(-c2cc3c(s2)C(C)(C)N(CCN2CCOCC2)C3=O)n1 |  | 57.3% [middle of 5 runs] | 48.8% [middle of 5 runs] | 50.1% [middle of 5 runs] | 51.3% [middle of 5 runs] | 90.5% [middle of 5 runs] |  |  |  |
| Cn1ncnc1[C@H]1c2n[nH]c(=O)c3cc(F)cc(c23)N[C@@H]1c1ccc(F)cc1 |  |  |  |  |  |  |  | < 7.00 | viability, T/C (compound 0.000316 µM): 98.9% [middle of 5 runs]; viability, T/C (compound 0.001 µM): 104% [middle of 5 runs]; viability, T/C (compound 0.00316 µM): 91.5% [middle of 5 runs]; viability, T/C (compound 0.01 µM): 93.2% [middle of 5 runs] |
| O=C(c1cc(Cc2n[nH]c(=O)c3ccccc23)ccc1F)N1CCN(C(=O)C2CC2)CC1 | 96.4% [middle of 5 runs] | 92.6% [middle of 5 runs] |  |  | 82% [middle of 5 runs] |  |  | < 5.00 |  |
